Experimental data reported in US20110144012A1, “SHORTENED GLUCAGON-LIKE PEPTIDE 1(SGLP-1) PREPARATION METHOD AND APPLICATION” (Dalian D.N. Bio-Engineering Co., Ltd., priority 2005, published 2011).

Experiments:
[1] = tested on: GK diabetes mellitus rats; experiment: Blood glucose-lowering effect experiment in GK diabetes mellitus rats (fasting blood glucose level); type: in vivo; conditions: injected 0.1 mg/time, twice a day for two weeks, fasted overnight
Protocol: Material and Method • GK diabetes mellitus rats (Provided by Shanghai Laboratory Animal Center, Chinese Academy of Sciences)
sGLP-1 sequence is as follows:
• The above eight polypeptides with different sequence is mixed with 0.9% NaCl solution to prepare 1 mg/ml solution, which is standby. • The rats are grouped at random, and fast overnight. Use graduated capillaries (treated with heparin before injection) to sample 20 microliters of blood from their orbital sinuses, add 300 microliters of normal saline to the blood and mix well, centrifuge it at 3000 rpm to remove erythrocyte, and use blood serum for fasting blood glucose level determination. Inject each group of rats with different polypeptides, and use normal saline as Control N. All the rats are injected at 0.1 mg/time, twice a day for two weeks. They must fast overnight, and be sampled according to the above method for fasting blood glucose level determination. […] No. 1 sequence is full-length GLP-1 sequence, in which the second amino acid is changed from A to G, as Control P; No. 2 to No. 5 are the reconstructed sequences with different shortened length.

Healthy C57/BL mice = experiment: C peptide secretion promotion effect of sGLP-1 (serum C peptide, radio immunity kit); type: in vivo; conditions: fasting healthy C57/BL mice, 10 microgram injected
Protocol: Experiment Material and Method: • Healthy C57/BL mice (Provided by Shanghai Laboratory Animal Center, Chinese Academy of Sciences) • 0.9% NaCl solution, pure sGLP-1 product (Prepared in Example 1), pure GLP-1 product. • Radio immunity C-peptide determination reagent kit (Made by Shanghai Institute of Biological Products (SIBP), Ministry of Health P.R.China.) • Healthy C57/BL mice are divided into three groups. Use graduated capillary (wash the inner walls of the capillaries with 1 mg/mL heparin and dry the capillaries) to sample 50 microliters of blood from their orbital sinuses first, and inject the three groups of fasting mice with 10 microgram of sGLP-1, 10 microgram of GLP-1 and 200 microliters of normal saline, and regard this time as zero. Repeat the above operation at 5, 10, 20 and 30 minutes after that respectively. Place all the blood samples in a centrifuge tube with 50 microliters of normal saline in it, mix the blood samples and saline well, centrifuge the mixture at 3000 rpm to remove erythrocyte, and determinate C peptide level of blood serum according to the method in this radio immunity reagent kit to check C peptide secretion promotion effect of sGLP-1. • The experiment result is shown in Table 3.

NOD mice [2] = experiment: Blood glucose-lowering effect on NOD mice (glucose injection); type: in vivo; conditions: for blood glucose level, 0 minutes after administration / blood glucose level, 5 minutes after administration / blood glucose level, 10 minutes after administration / blood glucose level, 20 minutes after administration: NOD mice fasted overnight, 200 microliters 40% glucose + 10 microgram peptide; for blood glucose-lowering effect (in words): NOD mice, glucose injection + 10 microgram peptide
Protocol: Experimental Material and Method: • NOD mice (Provided by Shanghai Laboratory Animal Center, Chinese Academy of Sciences) fasting overnight. • 40% glucose, 0.9% NaCl solution, pure sGLP-1 product (Prepared in Example 1), pure GLP-1 product, reagent kit for blood glucose level determination (Made by Shanghai Institute of Biological Products (SIBP), Ministry of Health P.R.China.) NOD mice fast overnight, and are divided into three groups. Fasting Group 1 is injected with 200 microliters of 40% glucose and 10 microgram of sGLP-1; Fasting Group 2 is injected with 200 microliters of 40% glucose and 10 microgram of GLP-1; Group 3, a control group, is injected with only glucose. Immediately use graduated capillaries (treated with heparin before injection) to sample 20 microliters of blood from their orbital sinuses, add 300 microliters of normal saline to the blood and mix well, centrifuge it at 3000 rpm to remove erythrocyte, and use blood serum for fasting blood glucose level determination. […] The blood serum of the three groups is determined on blood glucose level according to the method in the reagent kit in order to check the blood glucose-lowering effect of each group.

NOD mice [3] = experiment: Insulinotropic hormone secretion effect of sGLP-1 (serum insulin, radio immunity kit); type: in vivo; conditions: fasting NOD mice, 10 microgram injected
Protocol: Experimental Material and Method: • NOD mice (Provided by Shanghai Laboratory Animal Center, Chinese Academy of Sciences) • 0.9% NaCl solution, pure sGLP-1 product (prepared in Example 1), pure GLP-1 product, and radio immunity insulin determination reagent kit (Made by Shanghai Institute of Biological Products (SIBP), Ministry of Health P.R.China.) NOD mice are divided into three groups. Use graduated capillary (wash the inner walls of the capillaries with 1 mg/mL heparin and dry the capillaries) to sample 50 microliters of blood from their orbital sinuses first, and inject the three groups of fasting mice with 10 microgram of sGLP-1, 10 microgram of GLP-1 and 200 microliters of normal saline, and regard this time as zero. Repeat the above operation at 5, 10, 20 and 30 minutes after that respectively. Place all the blood samples in a centrifuge tube with 50 microliters of normal saline in it, mix the blood samples and saline well, centrifuge the mixture at 3000 rpm to remove erythrocyte, and determinate insulin level of blood serum according to the method in this radio immunity reagent kit to check insulinotropic hormone secretion effect of sGLP-1. • The experiment result is shown in Table 2.

[4] = in comparison with GLP-1; U.S. Pat. No. 5,424,286; cited from earlier work
[5] = in comparison with GLP-1; cited from earlier work

Row | Substance | blood glucose-lowering effect (fasting blood glucose level) [1] | c peptide level, 0 minutes after administration (Healthy C57/BL mice) [pmol/mL] | c peptide level, 5 minutes after administration (Healthy C57/BL mice) [pmol/mL] | c peptide level, 10 minutes after administration (Healthy C57/BL mice) [pmol/mL] | c peptide level, 20 minutes after administration (Healthy C57/BL mice) [pmol/mL] | c peptide level, 30 minutes after administration (Healthy C57/BL mice) [pmol/mL] | blood glucose level, 0 minutes after administration (NOD mice [2]) [mmol/L] | blood glucose level, 5 minutes after administration (NOD mice [2]) [mmol/L] | blood glucose level, 10 minutes after administration (NOD mice [2]) [mmol/L] | blood glucose level, 20 minutes after administration (NOD mice [2]) [mmol/L] | blood glucose-lowering effect (in words) (NOD mice [2]) | insulin level, 0 minutes after administration (NOD mice [3]) | insulin level, 5 minutes after administration (NOD mice [3]) | insulin level, 10 minutes after administration (NOD mice [3]) | insulin level, 20 minutes after administration (NOD mice [3]) | insulin level, 30 minutes after administration (NOD mice [3]) | also measured
1 | HSEGTFTSDVSSYLEGQAAKEFIAWL [No. 3, shortened glucagon-like peptide 1 of 26 amino acids, X1 is Ser] | blood glucose-lowering effect prominently exceeding No. 1 |  |  |  |  |  |  |  |  |  |  |  |  |  |  |  | 
2 | His-Ala-Glu-Gly-Thr-Phe-Thr-Ser-Asp-Val-Ser-Ser-Tyr-Leu-Glu-Gly-Gln-Ala-Ala-Lys-Glu-Phe-Ile-Ala-Trp-Leu-Val-Lys-Gly-Arg [GLP-1] |  | 0.07 | 0.08 | 0.15 | 0.11 | 0.09 | 4.11 | 5.12 | 4.87 | 4.03 | have blood glucose-lowering effect | 3.11 10^−6 international unit | 9.76 10^−6 international unit | 10.63 10^−6 international unit | 11.23 10^−6 international unit | 6.27 10^−6 international unit | 
3 | Exendin 4 |  |  |  |  |  |  |  |  |  |  |  |  |  |  |  |  | concentration required for insulin secretion action (in words) [4]: lower; half time in human body (in words) [5]: longer half time in human body
4 | HGEGTFTSDVSSYLEGQAAKEFIAWL [No. 2, shortened glucagon-like peptide 1 of 26 amino acids, X1 is Gly] | blood glucose-lowering effect prominently exceeding No. 1 | 0.07 | 0.08 | 0.20 | 0.16 | 0.15 | 4.08 | 4.34 | 4.28 | 3.98 | have blood glucose-lowering effect | 2.88 10^−6 international unit | 10.56 10^−6 international unit | 19.88 10^−6 international unit | 24.67 10^−6 international unit | 16.45 10^−6 international unit | c peptide secretion promotion (in words) (Healthy C57/BL mice): can prominently promote c peptide secretion; c peptide secretion promotion capacity compared with GLP-1 (in words) (Healthy C57/BL mice): c peptide secretion promotion capacity exceeding GLP-1; insulin secretion promotion (in words) (NOD mice [3]): can prominently promote insulin secretion; insulin generation stimulation capacity compared with GLP-1 (in words) (NOD mice [3]; short-time versus medium and long-term): the same short-time insulin generation stimulation capacity as GLP-1 and the medium and long-term insulin generation stimulation capacity stronger than GLP-1; blood glucose-lowering effect (fasting blood glucose level) ([1]; listed as sGLP-1): better blood glucose-lowering effect than GLP-1 and its reconstructed sequence
